Test results published in patent US9957484B2, “Methods for promoting cell reprogramming” (Sanford-Burnham Medical Research Institute, priority 2011, dated 2018).
Blank lines part the entries; values can stand above or below the compound they belong to.

Experiments:
[1] = tested on: MEFs during reprogramming; experiment: Alkaline phosphatase (AP)+ colony formation during reprogramming; assay type: cell-based, mouse; settings: molecule applied during reprogramming
uninfected MEFs = experiment: Cell proliferation assay (Celltiter 96 aqueous), uninfected MEFs; assay type: cell-based, mouse; settings: 0.5 μM
Procedure: (§1) MEFs were treated with drugs at 2 μM and proliferation was assayed by using the Celltiter 96™ aqueous method (Promega). Y-axis represents the absorbance at 490 nm to detect formazan, which is converted from MTS tetrazolium by living cells. A higher reading indicates increased cell number. […] Oct4-GFP+ colonies were quantified at day 13.
(§2) FIG. 16A is a graph plotting relative cell viability. 4F-infected MEFs were seeded in 96-well plates and 0.5 μM of three inhibitors was added at day 3 after transduction (Day 0 in dataset). Proliferation of cells was analyzed every other day using the Celltiter 96™ aqueous method (Promega). FIG. 16B is a graph plotting relative cell viability. […] The experimental procedure is the same as in FIG. 16A.
(§3) Cell proliferation assay: 3000 MEFs were seeded in each well in 96-well plates and transduced with 4F virus for three days. Cells were then treated with inhibitors at 0.5 μM and harvested every other day. Cells were incubated with mES medium containing Celltiter 96 Aqueous™ one solution (Promega, G3580) for 1 hr in tissue culture incubator. Absorbance at 490 nm was then measured for each well using a plate reader, and data was used to generate relative proliferation curves using the signal from day 3 post-transduction as a reference.

[2] = tested on: 4F-transduced Oct4-GFP MEFs; experiment: Kinase inhibitor treatment of 4F-transduced Oct4-GFP MEFs, Oct4-GFP+ colony count (reprogramming efficiency); assay type: cell-based, mouse; settings: for reprogramming, Oct4-GFP+ colonies, dose/response: 0.5 μM, drug from day 3, colonies at day 13; for iPSC generation in non-permissive conditions: 4F expression too low to reprogram vehicle-treated MEFs, GFP+ colonies at day 12-13; for iPSC generation when p53 is silenced by shRNA: 4F plus p53 shRNA, inhibitor from day 3, GFP+ colonies at day 12; for reprogramming, Oct4-GFP+ colonies: secondary screen
Procedure: MEFs were cultured in DMEM (Invitrogen, 11995-065) with 10% FBS (Invitrogen) plus glutamine and NEAA. Only MEFs at passage of 0 to 4 were used for reprogramming. pMX-Oct4, Sox2, Klf4 and cMyc were purchased from Addgene. […] Viruses were harvested and combined 2 days later. For reprogramming, MEFs were seeded in 12-well plates and transduced with 4F virus the next day with 4 ug/ml Polybrene. One day later, the medium was changed to fresh MEF medium, and 3 days later it was changed to mES culture medium supplemented with LIF (Millipore, ESG1107). GFP+ colonies were picked at day 14 post-transduction, and expanded clones were cultured in DMEM with 15% FBS (Hyclone) plus LIF, thioglycerol, glutamine and NEAA. Irradiated CF1 MEFs served as feeder layers to culture mES cells and derived iPS clones.
All compounds are well-characterized protein kinase inhibitors. Compounds were diluted to 2 mM in 96-well plates. 4F-transduced cells were seeded into gelatin coated plates (4000 cells/well). Inhibitors were added every other day until day 13. Cells were then fixed with 4% paraformaldehyde for 20 min at room temperature and number of Oct4-GFP+ colonies was directly counted under a microscope. Cells were then stained with Vector red alkaline phosphatase substrate kit I™ (Vector laboratories, SK5100).
To define signaling mechanisms underlying reprogramming, a double-blind screen of 244 well-characterized cell-permeable protein kinase inhibitors was undertook to identify kinases that enhance or inhibit the process. Mouse embryonic fibroblasts from a transgenic line in which GFP expression is driven by the endogenous Oct4 promoter were chosen as the starting material for a reporter cell line of somatic cell reprogramming. Fully reprogrammed cells switch on endogenous Oct4 expression, making resultant iPS colonies GFP-positive and enabling quantification of reprogramming efficiency. To minimize well-to-well variation, MEFs were first transduced with 4F factors in bulk (FIG. 9A) and then reseeded at 3000 cells/well into gelatin-coated 96-well plates before inhibitor treatment. Starting at day 3 post-transduction, inhibitors were added at a final concentration of 2 μM and media were refreshed every other day with mES culture medium plus inhibitor. At day 13 post-transduction, plates were fixed in 4% paraformaldehyde and GFP-positive colonies were directly quantified microscopically.
Two columns of wells from each plate (columns 1 and 12) were treated with DMSO (vehicle) only and served as controls.

4F-infected MEFs [3] = experiment: Cell proliferation assay (Celltiter 96 aqueous), 4F-infected MEFs; assay type: cell-based, mouse; settings: 4F-transduced MEFs, 0.5 μM
Procedure: as §1, §2, §3

GSK3β = experiment: Western blotting of phospho- and total GSK3β; assay type: cell-based, mouse; settings: 4F-infected MEFs
Procedure: 4F-infected MEFs were treated with different doses of B6 inhibitor starting at day 3 post-infection for 48 hrs before being harvested for western blotting analysis.
The experiment was the same as FIG. 5C. Actin served as the loading control.
4F-infected MEFs were treated with 1 μM each of Akt inhibitor (Akt X) and B6.
Membranes were blocked with 5% milk in TBST for at least 1 hr at room temp or overnight at 4° C.

mES cells = experiment: mES cell self-renewal and differentiation in LIF+ and LIF− conditions; assay type: cell-based, mouse; settings: 0.5 μM and 1 μM, 4 days
Description: Cells were harvested for RNA extraction and RT-qPCR of indicated mES self-renewal genes.
LIF withdrawal in both B6-treated and DMSO control cells promoted mES cell differentiation, as indicated by loss of colonies, based on morphology and AP staining (data not shown).

Aurora A kinase = experiment: Western blotting of Aurora A kinase protein; assay type: cell-based, mouse; settings: wild type and 4F-infected MEFs (B6 1 μM, 2 days); 4F-infected MEFs (MLN8237, 48 hrs)
Procedure: FIGS. 13A-13h are a series of graphical representations depicting Aurora A kinase inhibition by B6 promoting Akt mediated inactivation of GSK3β. FIG. 13A is a western blot showing B6 treatment increases aurora A kinase protein levels. Both 4F-infected (day 3) and mock MEFs were treated with 1 μM B6 for 2 days and cells were harvested for western blotting of Aurora A kinase. Actin served as loading control.
Cells were harvested 48 hrs after drug treatment for western blotting analysis of AurkA protein. Actin serves as loading control.
Western blotting: Total cell lysates were prepared by incubating cells in MPER buffer (PIERCE, 78503) on ice for 20 min, and then cleared by centrifugation at 13,000 rpm for 10 min. An equal volume of lysates was loaded onto 10% SDS-PAGE gels, and proteins were transferred to PVDF membranes (Bio-Rad, 1620177) using the semi-dry system (Bio-Rad). Membranes were blocked with 5% milk in TBST for at least 1 hr at room temp or overnight at 4° C. Antibodies used include: anti-mNanog (R&D, AF2729), anti-h/mSSEA1 (R&D, MAB2156), anti-Actin (Thermo, MS1295P0), anti-AFP (Abcam, ab7751), anti-Beta III tubulin (R&D systems, MAB1368), and anti-alpha actinin (Sigma, A7811), anti-mAurkA (Bethyl lab, A300-072A), anti-hAurkA (Bethyl lab, A300-071A), total-GSK3β (Cell signaling technology, 9315S), phospho-GSK3β (Cell Signaling Technology, 9323S).

Pdk1, Src, Pten and p85α = experiment: RT-qPCR of genes upstream of Akt; assay type: cell-based, mouse; settings: MEFs transduced with 4F for three days, then 1 μM for two days
Procedure: FIG. 22, is a graph plotting relative mRNA levels in MEFs. […] MEFs were first transduced with 4F for three days and then treated for another two days with DMSO or 1 μM B6. Total RNAs were harvested and analyzed for indicated factors, which reportedly function upstream of Akt.
(§4) mRNA quantitative PCR: Total RNAs were extracted using Trizol (Invitrogen). After extraction, 1 ug total RNA was used for RT using Superscript II™ (Invitrogen). Quantitative PCR was performed using a Roche LightCycler480™ II and the Sybr green mixture from Abgene (Ab-4166). Other primers were previously described (Takahashi et al. 2006 Cell 126:663-76).

4F-infected MEFs [4] = experiment: Cell cycle analysis, PI staining and flow cytometry; assay type: cell-based, mouse; settings: for cell cycle progression: various concentrations, 48 hr
Procedure: FIG. 24A is a series of images of DNA analysis by flow cytometry. 4F-infected MEFs were treated with different concentrations of B6 at day 3 post-infection. Cells were harvested after 48 hr of drug treatment, subjected to PI staining and analyzed for DNA content by flow cytometry.
FIG. 24B is a series of images of DNA analysis by flow cytometry. […] The experimental procedure was as in FIG. 24A.
Cell cycle analysis: MEFs or 4F-infected MEFs were treated with inhibitors for two days and then harvested and trypsinized before fixing in 75% ethanol overnight. Cells were centrifuged at 1000 rpm for 5 min, washed once with PBS, and treated with PI staining solution for at least 30 min at room temperature before flow cytometry analysis. ˜20000 events per sample were collected per analysis and cell cycle data was modeled using ModFit™.

Aurora A kinase mRNA = experiment: RT-qPCR of Aurora A kinase mRNA; assay type: cell-based, mouse; settings: 4F-infected MEFs, 1 μM, 2 days
Procedure: MEFs were infected with 4F for 3 days and treated under mock conditions or with DMSO or 1 μM B6 for 2 days prior to RT-qPCR analysis of total RNA.
as §4

Nanog, Tet1 and Eras = experiment: RT-qPCR of mES-specific genes in 4F-transduced MEFs; assay type: cell-based, mouse; settings: day 14 post transduction
Procedure: Data is derived from analysis of three independent wells. FIG. 23B is a histogram of relative mRNA level. […] Cells were harvested at day 14 post 4F transduction. […] Shown are data derived from three independent wells.
as §4

[5] = tested on: OSKM-transduced Oct4-EGFP MEFs; experiment: OSKM-induced reprogramming with small molecules, GFP+ colonies; assay type: cell-based, mouse; settings: treated four days after OSKM transduction for at least 10 days, vs DMSO
Procedure: All 17 molecules are tested by examining alkaline phosphatase (AP)+ colony formation during reprogramming while these molecules were applied. […] To evaluate their effect on induction of mature GFP+ iPS cells, OSKM-transduced Oct4-EGFP MEFs are treated four days after transduction with each of these factors separately.
Oct4-EGFP MEFs are transduced with OSKM and four days later treated with individual small molecules for at least 10 days. GFP+ colonies are identified. Error bars represent standard deviations of three independent experiments. *p value<0.05; **p value<0.005.

Cdk1/B = Cdk1/B (Homo sapiens, UniProt P06493); settings: read-out: Potential Targets: Cdk1/B, IC50; cited from earlier work
Cdk5/p35 = Cdk5/p35 (Homo sapiens, UniProt Q00535); settings: read-out: Potential Targets: Cdk5/p35, IC50; cited from earlier work
Cdk7/H/MAT1 = Cdk7/H/MAT1 (Homo sapiens, UniProt P50613); settings: read-out: Potential Targets: Cdk7/H/MAT1, IC50; cited from earlier work
Cdk2/E = Cdk2/E (Homo sapiens, UniProt P24941); settings: read-out: Potential Targets: Cdk2/E, IC50; cited from earlier work
Cdk3/E = Cdk3/E (Homo sapiens, UniProt Q00526); settings: read-out: Potential Targets: Cdk3/E, IC50; cited from earlier work
[6] = 12-well plates, 2 μM, drug from day 3, colonies at day 13, vs DMSO

Chain of Cdk7/H/MAT1 (P50613 whole entry, species assumed): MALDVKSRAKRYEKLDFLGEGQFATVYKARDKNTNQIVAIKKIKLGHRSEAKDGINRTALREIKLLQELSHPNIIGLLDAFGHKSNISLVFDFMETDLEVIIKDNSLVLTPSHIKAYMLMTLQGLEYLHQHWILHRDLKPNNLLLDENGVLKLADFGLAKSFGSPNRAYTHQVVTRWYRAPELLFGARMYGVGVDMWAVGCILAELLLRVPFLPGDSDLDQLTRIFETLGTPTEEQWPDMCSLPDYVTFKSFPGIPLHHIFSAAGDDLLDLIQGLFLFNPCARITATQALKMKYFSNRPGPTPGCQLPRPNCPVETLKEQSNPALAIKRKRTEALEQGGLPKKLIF
Chain of Cdk7/H/MAT1 (P51946 whole entry partner, species assumed): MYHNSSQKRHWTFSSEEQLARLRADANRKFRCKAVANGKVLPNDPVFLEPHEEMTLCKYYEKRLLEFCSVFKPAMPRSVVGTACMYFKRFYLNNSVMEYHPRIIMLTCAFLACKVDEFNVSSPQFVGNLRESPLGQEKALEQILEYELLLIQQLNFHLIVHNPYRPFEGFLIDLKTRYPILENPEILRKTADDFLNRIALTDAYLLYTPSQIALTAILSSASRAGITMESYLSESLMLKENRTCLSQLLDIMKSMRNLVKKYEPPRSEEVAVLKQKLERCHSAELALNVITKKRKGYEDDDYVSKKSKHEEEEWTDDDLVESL
Chain of Cdk7/H/MAT1 (P51948 whole entry partner, species assumed): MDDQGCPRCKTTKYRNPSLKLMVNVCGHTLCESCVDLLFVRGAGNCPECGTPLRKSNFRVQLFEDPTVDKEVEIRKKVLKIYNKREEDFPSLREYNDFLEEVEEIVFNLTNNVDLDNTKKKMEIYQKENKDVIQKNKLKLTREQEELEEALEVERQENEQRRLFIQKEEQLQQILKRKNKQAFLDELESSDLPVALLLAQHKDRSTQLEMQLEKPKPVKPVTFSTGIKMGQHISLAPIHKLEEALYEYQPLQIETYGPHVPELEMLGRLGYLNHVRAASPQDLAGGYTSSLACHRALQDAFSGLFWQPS
Chain of Cdk5/p35 (Q00535 whole entry, species assumed): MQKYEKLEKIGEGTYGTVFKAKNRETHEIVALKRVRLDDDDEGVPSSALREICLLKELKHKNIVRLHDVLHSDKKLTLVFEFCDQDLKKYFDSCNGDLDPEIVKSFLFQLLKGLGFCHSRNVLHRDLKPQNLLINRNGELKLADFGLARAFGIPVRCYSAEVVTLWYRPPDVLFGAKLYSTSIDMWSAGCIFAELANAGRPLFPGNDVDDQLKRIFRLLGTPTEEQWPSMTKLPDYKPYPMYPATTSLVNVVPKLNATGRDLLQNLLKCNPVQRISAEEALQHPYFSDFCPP
Chain of Cdk5/p35 (Q15078 whole entry partner, species assumed): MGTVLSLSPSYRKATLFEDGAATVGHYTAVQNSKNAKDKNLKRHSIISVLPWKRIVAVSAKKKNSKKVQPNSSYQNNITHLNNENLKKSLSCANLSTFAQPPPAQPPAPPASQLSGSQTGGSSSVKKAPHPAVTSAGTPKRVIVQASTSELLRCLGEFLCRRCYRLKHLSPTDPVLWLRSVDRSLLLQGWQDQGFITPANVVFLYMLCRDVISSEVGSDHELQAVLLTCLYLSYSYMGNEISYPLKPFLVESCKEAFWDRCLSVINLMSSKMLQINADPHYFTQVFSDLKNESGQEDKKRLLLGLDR
Chain of Cdk1/B (P06493 whole entry, species assumed): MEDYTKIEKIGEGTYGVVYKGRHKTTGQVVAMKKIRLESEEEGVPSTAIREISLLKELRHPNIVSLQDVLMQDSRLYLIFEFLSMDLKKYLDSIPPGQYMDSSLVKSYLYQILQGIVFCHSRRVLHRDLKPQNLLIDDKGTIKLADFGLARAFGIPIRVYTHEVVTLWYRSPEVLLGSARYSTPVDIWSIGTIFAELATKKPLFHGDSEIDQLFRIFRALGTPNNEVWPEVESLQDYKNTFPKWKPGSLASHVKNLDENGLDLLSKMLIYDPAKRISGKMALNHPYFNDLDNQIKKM
Chain of Cdk1/B (P14635 whole entry partner, species assumed): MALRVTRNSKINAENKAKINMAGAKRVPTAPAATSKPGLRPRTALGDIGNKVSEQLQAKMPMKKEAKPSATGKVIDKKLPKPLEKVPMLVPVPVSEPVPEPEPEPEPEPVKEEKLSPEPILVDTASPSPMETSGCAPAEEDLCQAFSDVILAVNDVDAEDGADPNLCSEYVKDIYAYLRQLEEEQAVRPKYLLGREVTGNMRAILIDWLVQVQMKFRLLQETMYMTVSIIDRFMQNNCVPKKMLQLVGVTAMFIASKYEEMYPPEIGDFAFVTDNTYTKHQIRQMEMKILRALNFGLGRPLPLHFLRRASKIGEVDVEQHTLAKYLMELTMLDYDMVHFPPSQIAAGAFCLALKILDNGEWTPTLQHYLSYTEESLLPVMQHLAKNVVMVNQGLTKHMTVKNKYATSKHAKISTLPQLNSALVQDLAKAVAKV

Compound: 4-hydroxytamoxifen
- effect on AP+ colony formation [1]: not showing adverse effect on AP+ colony formation

Compound: O=S(=O)(c1c(O)c(Cl)cc(Cl)c1Cl)c1c(O)c(Cl)cc(Cl)c1Cl [BIM-0207174]
- proliferation (uninfected MEFs): did not significantly promote proliferation
- reprogramming, Oct4-GFP+ colonies, dose/response [2]: potent enhancers
- iPSC generation in non-permissive conditions [2]: enhanced iPSC generation even in non-permissive conditions
- iPSC generation when p53 is silenced by shRNA [2]: equivalent in inhibitor-treated and -untreated conditions
- reprogramming, Oct4-GFP+ colonies [2, 6]: consistently and significantly enhanced reprogramming
- proliferation (4F-infected MEFs [3]): did not significantly promote proliferation

- reprogramming ([2]; 1 μM, triplicate wells): compromises reprogramming
Compound: CCN(CC)CCCCN1c2ccccc2Oc2ccc(Cl)cc21 [Akt X]
- GSK3β phosphorylation (GSK3β; 1 μM each of Akt X and B6): diminished

- reprogramming, Oct4-GFP+ colonies, dose/response [2]: potent enhancers
Compound: O=[N+]([O-])c1ccc(CNc2nc(NCc3cccc(C(F)(F)F)c3)nc3nc[nH]c23)cc1 [BIM-0207164]
- proliferation (uninfected MEFs): did not significantly promote proliferation
- iPSC generation in non-permissive conditions [2]: enhanced iPSC generation even in non-permissive conditions
- iPSC generation when p53 is silenced by shRNA [2]: equivalent in inhibitor-treated and -untreated conditions
- reprogramming, Oct4-GFP+ colonies [2, 6]: consistently and significantly enhanced reprogramming
- proliferation (4F-infected MEFs [3]): did not significantly promote proliferation

Compound: COC(=O)[C@H]1[C@H]2C[C@H]3c4[nH]c5ccccc5c4CCN3C[C@@H]2CC[C@@H]1O.Cl [Corynanthine, Corynanthine hydrochloride]
- effect on AP+ colony formation [1]: not showing adverse effect on AP+ colony formation

Compound: Cc1cccc(-c2[nH]c(C(C)(C)C)nc2-c2ccc3c(c2)OCO3)n1 [BIM-0086716]
- reprogramming, Oct4-GFP+ colonies [2, 6]: consistently and significantly enhanced reprogramming

- reprogramming, Oct4-GFP+ colonies, dose/response [2]: potent enhancers
- AurkA mRNA levels (Aurora A kinase mRNA): not significantly altered
Compound: O=C(Nc1cccc(Nc2nccc(Nc3cccc(C(F)(F)F)c3)n2)c1)C1CC1 [BIM-0086660]
- Oct4 expression in mES cells (mES cells): very small increase
- mES self-renewal or differentiation (mES cells; LIF+ and LIF−): a significant effect on either mES self-renewal (in the presence of LIF) or differentiation (following LIF withdrawal) was not seen
- AurkA protein levels (Aurora A kinase): increased AurkA protein levels relative to untreated cells
- reprogramming, Oct4-GFP+ colonies ([2]; 1 μM, vs DMSO): enhanced reprogramming more robustly at 1 μM than at 2 μM
- GSK3β total protein levels (GSK3β; 48 hrs): unchanged
- phospho-GSK3β (GSK3β; different doses from day 3 post-infection for 48 hrs): significant increase in phospho-GSK3β
- expression levels of genes upstream of Akt (Pdk1, Src, Pten, p85α) (Pdk1, Src, Pten and p85α): significant changes were not observed
- cell cycle progression (4F-infected MEFs [4]): little change in cell cycle progression

Compound: COc1cc(Nc2ncc3c(n2)-c2ccc(Cl)cc2C(c2c(F)cccc2OC)=NC3)ccc1C(=O)O [MLN8237]
- mES-specific gene expression (Nanog, Tet1 and Eras): increases in mES-specific gene expression
- AurkA protein levels (Aurora A kinase): Increased AurkA protein levels
- enhancement of reprogramming ([2]; 10 nM, from day 3 for 10 days): approximately 4 fold
- number of GFP+ colonies ([2]; 100 nM): significant increase in the number of GFP+ colonies
- cell cycle (4F-infected MEFs [4]; 10 nM): did not alter the cell cycle
- number of cells in G2 (4F-infected MEFs [4]; 100 nM): increased the number of cells in G2
- cell cycle progression (4F-infected MEFs [4]): little change in cell cycle progression

Compound: COc1ccc2cc(CCC(C)=O)ccc2c1 [Nabumetone]
- effect on AP+ colony formation [1]: not showing adverse effect on AP+ colony formation
- increase in number of reprogrammed colonies [5]: at least 2.8 fold

Compound: CC(C)c1nn(-c2c(Cl)cccc2Cl)c2nc(Cc3ccc(OCCO)cc3)[nH]c(=O)c12 [BIM-0086744]
- IC50 (Cdk1/B): 48 nM
- IC50 (Cdk5/p35): 71 nM
- IC50 (Cdk7/H/MAT1): 9 nM
- IC50 (Cdk2/E): 9 nM
- IC50 (Cdk3/E): 10 nM

Compound: O=C(NCCN1CCOCC1)c1ccc(Cl)cc1 [Moclobemide]
- effect on AP+ colony formation [1]: not showing adverse effect on AP+ colony formation
